Data published in ChEMBL document CHEMBL6182948 (J Med Chem, 2025).

Legend:
Cytochrome P450 1B1 = target: T1, Cytochrome P450 1B1 (Homo sapiens, UniProt Q16678); assay: Inhibition of human recombinant CYP1B1 using 7-ethoxyresorufin as substrate incubated under dark condition for 30 mins in presence of NADPH by EROD fluorescence assay; type: ADME
T1 sequence (Q16678 whole entry): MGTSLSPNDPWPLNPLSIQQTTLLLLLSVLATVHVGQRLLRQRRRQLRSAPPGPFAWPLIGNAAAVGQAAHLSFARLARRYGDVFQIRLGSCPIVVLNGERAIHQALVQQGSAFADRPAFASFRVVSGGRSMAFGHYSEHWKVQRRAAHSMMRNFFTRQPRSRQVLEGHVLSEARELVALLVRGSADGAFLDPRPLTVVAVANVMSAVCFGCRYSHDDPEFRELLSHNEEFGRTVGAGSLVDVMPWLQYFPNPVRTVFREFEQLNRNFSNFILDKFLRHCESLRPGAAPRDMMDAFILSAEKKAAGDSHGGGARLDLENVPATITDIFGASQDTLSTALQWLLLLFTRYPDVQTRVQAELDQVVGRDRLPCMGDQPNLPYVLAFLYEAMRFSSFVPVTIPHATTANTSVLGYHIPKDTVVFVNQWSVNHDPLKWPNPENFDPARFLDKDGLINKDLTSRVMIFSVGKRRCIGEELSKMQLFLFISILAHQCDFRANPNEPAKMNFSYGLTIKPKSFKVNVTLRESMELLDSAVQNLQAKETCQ

Cytochrome P450 1A1 = target: T2, Cytochrome P450 1A1 (Homo sapiens, UniProt P04798); assay: Inhibition of human recombinant CYP1A1 using 7-ethoxyresorufin as substrate incubated under dark condition for 15 mins in presence of NADPH by EROD fluorescence assay; type: ADME
T2 sequence (P04798 whole entry): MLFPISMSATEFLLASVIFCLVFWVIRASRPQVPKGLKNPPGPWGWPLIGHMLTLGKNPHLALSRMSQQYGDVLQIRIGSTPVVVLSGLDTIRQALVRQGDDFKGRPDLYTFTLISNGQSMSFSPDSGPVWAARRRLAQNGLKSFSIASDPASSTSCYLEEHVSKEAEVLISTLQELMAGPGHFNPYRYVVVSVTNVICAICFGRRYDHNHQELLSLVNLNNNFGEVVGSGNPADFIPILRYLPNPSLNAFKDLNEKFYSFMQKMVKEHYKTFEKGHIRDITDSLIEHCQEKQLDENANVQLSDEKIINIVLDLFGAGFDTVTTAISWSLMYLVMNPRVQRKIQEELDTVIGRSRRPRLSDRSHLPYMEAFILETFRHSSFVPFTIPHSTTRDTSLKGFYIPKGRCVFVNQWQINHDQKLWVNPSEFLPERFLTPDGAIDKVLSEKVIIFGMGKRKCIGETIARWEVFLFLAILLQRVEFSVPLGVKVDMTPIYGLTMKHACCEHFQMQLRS

Cytochrome P450 1A2 = target: T3, Cytochrome P450 1A2 (Homo sapiens, UniProt P05177); assay: Inhibition of human recombinant CYP1A2 using 7-ethoxyresorufin as substrate incubated under dark condition for 45 mins in presence of NADPH by EROD fluorescence assay; type: ADME
T3 sequence (P05177 whole entry): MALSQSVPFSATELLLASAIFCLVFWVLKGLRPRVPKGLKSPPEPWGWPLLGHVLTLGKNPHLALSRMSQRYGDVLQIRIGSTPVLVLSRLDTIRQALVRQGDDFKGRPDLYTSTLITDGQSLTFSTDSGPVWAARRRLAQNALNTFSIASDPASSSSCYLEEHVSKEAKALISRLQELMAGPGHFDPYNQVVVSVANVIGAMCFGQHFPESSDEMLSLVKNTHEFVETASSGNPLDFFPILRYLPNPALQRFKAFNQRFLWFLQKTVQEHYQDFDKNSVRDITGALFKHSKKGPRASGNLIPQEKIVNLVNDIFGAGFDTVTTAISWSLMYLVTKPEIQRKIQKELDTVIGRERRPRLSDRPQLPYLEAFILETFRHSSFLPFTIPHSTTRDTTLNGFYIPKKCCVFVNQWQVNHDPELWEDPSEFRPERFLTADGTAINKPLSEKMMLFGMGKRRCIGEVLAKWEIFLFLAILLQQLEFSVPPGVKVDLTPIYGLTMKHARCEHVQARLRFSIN

CYP2D6 = CYP2D6 (Homo sapiens, UniProt P10635); assay: Inhibition of CYP2D6 in human liver microsome at 10 uM pre-incubated with compound for 5 mins followed NADPH addition and measured after 10 mins by LC-MS/MS analysis relative to control; type: ADME; settings: liver microsomes, time 15 min
CYP3A4 = CYP3A4 (Homo sapiens, UniProt P08684); assay: Inhibition of CYP3A4 in human liver microsome at 10 uM pre-incubated with compound for 5 mins followed NADPH addition and measured after 5 mins by LC-MS/MS analysis relative to control; type: ADME; settings: liver microsomes, time 10 min
Cytochrome P450 3A4 = Cytochrome P450 3A4 (Homo sapiens, UniProt P08684); assay: Inhibition of CYP3A4 in human liver microsome pre-incubated with compound for 5 mins followed NADPH addition and measured after 5 mins by LC-MS/MS analysis; type: ADME, microsomes
[1] = Cytotoxicity against HUVEC assessed as inhibition of cell viability incubated for 48 hrs by CellTiter Glo assay; type: toxicity, cell-based; settings: human, HUVEC cells
A549 = assay: Antiproliferative against human A549 cells assessed as inhibition of cell viability incubated for 48 hrs by CCK-8 assay; type: functional, cell-based; settings: A549, 48 h
[2] = Metabolic stability in liver microsomes (unknown origin) assessed as compound remaining at 0.5 mg/ml measured immediately in presence of NADPH regenerating system by LC-MS/MS analysis relative to control; type: ADME, Microsome; settings: read-out: Stability
[3] = Metabolic stability in liver microsomes (unknown origin) assessed as compound remaining at 0.5 mg/ml measured after 5 mins in presence of NADPH regenerating system by LC-MS/MS analysis relative to control; type: ADME, Microsome; settings: read-out: Stability
[4] = Metabolic stability in liver microsomes (unknown origin) assessed as compound remaining at 0.5 mg/ml measured after 15 mins in presence of NADPH regenerating system by LC-MS/MS analysis relative to control; type: ADME, Microsome; settings: read-out: Stability
[5] = Metabolic stability in liver microsomes (unknown origin) assessed as compound remaining at 0.5 mg/ml measured after 30 mins in presence of NADPH regenerating system by LC-MS/MS analysis relative to control; type: ADME, Microsome; settings: read-out: Stability
[6] = Metabolic stability in liver microsomes (unknown origin) assessed as compound remaining at 0.5 mg/ml measured after 60 mins in presence of NADPH regenerating system by LC-MS/MS analysis relative to control; type: ADME, Microsome; settings: read-out: Stability
[7] = Metabolic stability in liver microsomes (unknown origin) assessed as half life at 0.5 mg/ml measured up to 60 mins by LC-MS/MS analysis; type: ADME, Microsome
[8] = Stability in human plasma assessed as compound remaining at 100 uM measured immediately by LC-MS/MS analysis; type: ADME, cell-free; settings: read-out: Stability
[9] = Stability in human plasma assessed as compound remaining at 100 uM measured after 5 mins by LC-MS/MS analysis; type: ADME, cell-free; settings: read-out: Stability
[10] = Stability in human plasma assessed as compound remaining at 100 uM measured after 15 mins by LC-MS/MS analysis; type: ADME, cell-free; settings: read-out: Stability
[11] = Stability in human plasma assessed as compound remaining at 100 uM measured after 30 mins by LC-MS/MS analysis; type: ADME, cell-free; settings: read-out: Stability

Cytochrome P450 3A4, sequence (P08684 whole entry): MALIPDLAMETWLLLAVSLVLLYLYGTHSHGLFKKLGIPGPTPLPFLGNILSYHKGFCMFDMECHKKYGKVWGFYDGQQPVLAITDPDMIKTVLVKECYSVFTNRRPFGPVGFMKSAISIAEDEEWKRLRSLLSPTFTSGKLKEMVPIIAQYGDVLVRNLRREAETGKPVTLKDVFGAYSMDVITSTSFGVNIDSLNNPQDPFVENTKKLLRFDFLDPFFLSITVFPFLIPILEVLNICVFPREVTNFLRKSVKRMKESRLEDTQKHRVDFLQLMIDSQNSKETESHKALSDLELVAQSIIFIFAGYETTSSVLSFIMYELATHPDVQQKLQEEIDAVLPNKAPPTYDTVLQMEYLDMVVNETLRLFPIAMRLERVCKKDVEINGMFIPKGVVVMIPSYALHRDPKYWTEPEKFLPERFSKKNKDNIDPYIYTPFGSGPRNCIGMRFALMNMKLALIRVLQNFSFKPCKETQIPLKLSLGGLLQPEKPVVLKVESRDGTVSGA
CYP3A4, sequence (P08684 whole entry): as above
CYP2D6, sequence (P10635 whole entry): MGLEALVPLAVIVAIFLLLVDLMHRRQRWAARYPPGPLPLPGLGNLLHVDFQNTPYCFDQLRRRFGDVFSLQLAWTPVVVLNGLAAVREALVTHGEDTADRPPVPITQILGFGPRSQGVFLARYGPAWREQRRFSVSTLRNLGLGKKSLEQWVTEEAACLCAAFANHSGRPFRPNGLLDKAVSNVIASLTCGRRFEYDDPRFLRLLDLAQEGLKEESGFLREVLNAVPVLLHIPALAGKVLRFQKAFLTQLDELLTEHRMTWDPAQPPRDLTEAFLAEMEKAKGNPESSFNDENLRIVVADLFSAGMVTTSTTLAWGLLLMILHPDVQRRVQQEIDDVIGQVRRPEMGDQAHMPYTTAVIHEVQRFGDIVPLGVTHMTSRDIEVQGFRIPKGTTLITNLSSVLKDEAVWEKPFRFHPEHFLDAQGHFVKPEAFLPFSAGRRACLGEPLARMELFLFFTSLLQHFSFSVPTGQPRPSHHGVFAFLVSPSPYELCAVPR

SMILES | IC50 (Cytochrome P450 1B1) [nM] | IC50 (Cytochrome P450 1A1) [µM] | IC50 (Cytochrome P450 1A2) [µM] | inhibition at 10 min, 10 µM (CYP2D6) [%] | inhibition at 5 min, 10 µM (CYP3A4) [%] | IC50 (Cytochrome P450 3A4) [µM] | IC50 at 48 h [1] [µM] | IC50 (A549) [µM] | remaining at 0 min [2] [%] | remaining at 5 min [3] [%] | remaining at 0.25 h [4] [%] | remaining at 0.5 h [5] [%] | remaining at 1 h [6] [%] | half-life [7] [h] | remaining at 0 min, 100 µM [8] [%] | remaining at 5 min, 100 µM [9] [%] | remaining at 0.25 h, 100 µM [10] [%] | remaining at 0.5 h, 100 µM [11] [%]
O=C(Nc1cc(Cl)cc(Cl)c1)c1nc(-c2cccc(Cl)c2)cs1 | 1.48 | > 100 | > 80 | 0 | 0.94 | > 10 | > 40 | 7.5 | 100 | 99.5 | 102 | 98.2 | 96.6 | > 1 | 100 | 87.1 | 104 | 106
N#Cc1ccc(-c2csc(C(=O)Nc3cc(Cl)cc(Cl)c3)n2)cc1 | 1.77 | > 100 | > 100 | 0 | 86.6 | 1.55 | > 40 | > 20 | 100 | 93.8 | 101 | 102 | 97.1 | > 1 | 100 | 106 | 102 | 116
N#Cc1ccc(-c2csc(C(=O)Nc3ccc(C(F)(F)F)cc3)n2)cc1 | 0.05 | 0.0773 | > 10 | 23.1 | 77.1 | 2.97 | > 40 | > 20 | 100 | 93.1 | 80.4 | 72.5 | 54.3 | 1.17 | 100 | 99 | 94.2 | 110
